From PMC11201828, “A Novel Dimeric Short Peptide Derived from α-Defensin-Related Rattusin with Improved Antimicrobial and DNA-Binding Activities” (Biomolecules, 2024)
Values after ≈ are worked out from the molar mass of the structure shown. Where two headings read alike, the source gives them in different places. Positions of bridges follow the written chain, without caps; N, C: chain ends. Residues, ends and D or L forms follow the SMILES beside them. Chains are numbered I, II in the order given. No end group written: not given here.

Columns and labels:
Staphylococcus aureus = format: cell-based; conditions: 24 h
Protocol: (§1) The minimal inhibitory concentrations (MICs) of the peptides were determined following the broth microdilution method recommended by the Clinical and Laboratory Standards Institute (CLSI). Briefly, bacteria in their mid-logarithmic growth phase were diluted in Mueller–Hinton broth (MHB) (Difco, Franklin Lakes, NJ, USA) and aliquoted into a 96-well microtiter plate at a density of 4 × 10^6 CFU/well. The assay included both Gram-negative bacteria (Escherichia coli, Salmonella typhimurium, and Pseudomonas aeruginosa) and Gram-positive bacteria (Bacillus subtilis, Staphylococcus aureus, and Staphylococcus epidermidis), as well as methicillin-resistant Staphylococcus aureus strains (MRSA: CCARM 3089, CCARM 3090, CCARM 3095). The samples were subjected to a two-fold serial dilution before being added to the wells, and the plate was incubated at 37 °C for 24 h. The MIC was defined as the lowest peptide concentration that prevented visible bacterial growth. All experiments were conducted in triplicate and included appropriate growth and sterility controls.

Salmonella typhimurium = format: cell-based; conditions: 24 h
Protocol: as §1

bacterial strains = format: cell-based; conditions: strain not given; see Tables 1 and 2
Protocol: as §1

Escherichia coli = format: cell-based; conditions: 24 h
Protocol: as §1

Pseudomonas aeruginosa = format: cell-based; conditions: 24 h
Protocol: as §1

Bacillus subtilis = format: cell-based; conditions: 24 h
Protocol: as §1

[1] = test system: Staphylococcus epidermidis; format: cell-based; conditions: 24 h
Protocol: as §1

MRSA CCARM 3090 = format: cell-based, methicillin-resistant Staphylococcus aureus; conditions: CCARM 3090, 24 h
Protocol: as §1

MRSA CCARM 3089 = format: cell-based, methicillin-resistant Staphylococcus aureus; conditions: CCARM 3089, 24 h
Protocol: as §1

MRSA CCARM 3095 = format: cell-based, methicillin-resistant Staphylococcus aureus; conditions: CCARM 3095, 24 h
Protocol: as §1

S. aureus cell membranes = assay: SYTOX Green uptake assay; format: cell-based, Staphylococcus aureus; conditions: 32 µM F2, 4 µM melittin, 16 µM buforin-2, Figure 3
Protocol: The membrane permeabilization activity of the peptides was determined using the SYTOX Green uptake assay, as described previously. S. aureus was cultured in LB broth at 37 °C until it reached an optical density (O.D.) at 600 nm of 0.4, indicative of the mid-logarithmic phase. The cells were then washed and diluted to an O.D. 600 of 0.05 using 1× PBS buffer. The dye (SYTOX Green nucleic acid stain) was added to the bacterial suspension at a concentration of […], and the mixture was incubated at 4 °C for 18 h with agitation in the dark. The SYTOX Green-treated bacteria were placed in a quartz cell, where they were simultaneously exposed to the positive control melittin (2× MIC), the negative control buforin-2 (2× MIC), and the F2 dimer (2× MIC). An F-4500 FL fluorescence spectrophotometer (Shimadzu, Kyoto, Japan) was used to monitor fluorescence (excitation 485 nm, emission 520 nm).

[2] = test system: S. aureus cytoplasmic membrane; assay: Membrane depolarization assay, DiSC3-(5) dye; format: cell-based, Staphylococcus aureus; conditions: intact S. aureus; 32 µM F2, 4 µM melittin, 16 µM buforin-2; peptide added after 300 s; Figure 2
Protocol: The cytoplasmic membrane depolarization activity of the peptides was assessed using the membrane-potential-sensitive dye DiSC3-(5), following methodologies previously described in the literature. Staphylococcus aureus was cultured in Luria–Bertani (LB) broth at 37 °C until reaching an optical density (O.D.) at 600 nm of 0.3–0.4, indicative of mid-logarithmic phase growth. The cells were then washed with a buffer containing 20 mM glucose and 5 mM HEPES, and the cell suspension was diluted to an O.D. 600 of 0.05 in the same buffer. Potassium chloride (KCl) was added to achieve a final concentration of 100 mM to equilibrate potassium ion levels. The concentrations used for each peptide in our membrane depolarization assays were based on their respective MICs: 32 µM for F2, 4 µM for Melittin, and 16 µM for Buferin-2.
Fluorescence was monitored using an F-4500 FL fluorescence spectrophotometer (Shimadzu, Kyoto, Japan) with excitation and emission wavelengths set at 622 nm and 670 nm, respectively. Melittin, known for its membrane-disrupting properties, served as a positive control, while buforin-2, which translocates across membranes without causing depolarization, acted as a negative control. Both melittin and buforin-2 were tested at concentrations twice their minimal inhibitory concentration (MIC) levels.

E. coli ML-35 = assay: ONPG hydrolysis assay (inner membrane permeability); format: cell-based, Escherichia coli; conditions: 32 µM F2, 4 µM melittin, 16 µM buforin-2, Figure 4
Protocol: The internal membrane permeability was assessed using the ONPG hydrolysis assay, as described previously. E. coli ML-35p, which constitutively expresses cytoplasmic β-galactosidase and periplasmic β-lactamase, is resistant to ampicillin and deficient in lactose permease. E. coli ML-35 was incubated in LB broth containing ampicillin at 37 °C until the optical density (O.D.) at 600 nm reached 1.0. The cells were then washed with a buffer consisting of 97% 1× PBS and 3% LB and diluted to an O.D. 600 of 0.4 in the same buffer. A mixture of 50 μL of serially diluted peptide and 20 μL of dye (ONPG, final concentration 3 mM) was added to 100 μL of the bacterial suspension in a sterilized 96-well plate. Melittin served as a positive control, while buforin-2 was used as a negative control. The hydrolysis of ONPG was measured using a PHOMO Elisa reader (Autobio, Zhengzhou, China) at 405 nm for each time period.

plasmid DNA (pHIS2) = assay: DNA-binding gel retardation assay; conditions: plasmid pHIS2 145 μg/mL, 37 °C, 1 h, 1% agarose gel; Figure 5
Protocol: We evaluated the DNA-binding ability of F2 and F2 (C4S) monomeric peptides using gel retardation experiments. The concentration of plasmid DNA (pHIS2) was fixed at 145 μg/mL. The peptide was serially diluted in a binding buffer consisting of 10 mM Tris-HCl (pH 8.0), 5% glucose, 50 μg/mL BSA, 1 mM EDTA, and 20 mM KCl. This solution was then mixed with the DNA and incubated at 37 °C for 1 h. After incubation, the DNA–peptide mixture was stained with DNA gel loading dye. The samples were analyzed using 1% agarose gel electrophoresis in 0.5× TAE buffer. Plasmid bands were detected with a UV illuminator (Bio-Rad, Hercules, CA, USA).

CC(C)[C@@H]1NC(=O)[C@H](CCCNC(=N)N)NC(=O)[C@H](CCCNC(=N)N)NC(=O)[C@H]([C@@H](C)O)NC(=O)[C@H](CC(N)=O)NC(=O)[C@H](CCCNC(=N)N)NC(=O)[C@@H](NC(=O)[C@@H](NC(=O)[C@H](CCCNC(=N)N)NC(=O)[C@@H](N)CCCNC(=N)N)C(C)C)CSSC[C@@H](C(=O)N[C@@H](CCCNC(=N)N)C(=O)N[C@@H](CC(N)=O)C(=O)N[C@H](C(N)=O)[C@@H](C)O)NC1=O [F2-AH] (H-RRVCRNTRRVCRNT-NH2; disulfide 4-11; N-terminus assumed)
MIC (Staphylococcus aureus): 29 µg/mL (≈ 16.2 µM) | MIC (Salmonella typhimurium; murium): 15 µg/mL (≈ 8.39 µM) | MIC (bacterial strains): 15 µg/mL (≈ 8.39 µM) | MIC (Escherichia coli): 15 µg/mL (≈ 8.39 µM) | MIC (Pseudomonas aeruginosa): 15 µg/mL (≈ 8.39 µM) | MIC (Bacillus subtilis): 29 µg/mL (≈ 16.2 µM) | MIC [1]: 15 µg/mL (≈ 8.39 µM) | MIC (MRSA CCARM 3090): 29 µg/mL (≈ 16.2 µM) | MIC (MRSA CCARM 3089): 29 µg/mL (≈ 16.2 µM) | MIC (MRSA CCARM 3095): 58 µg/mL (≈ 32.5 µM)

CC[C@H](C)[C@H](NC(=O)CN)C(=O)NCC(=O)N[C@@H](C)C(=O)N[C@H](C(=O)N[C@@H](CC(C)C)C(=O)N[C@@H](CCCCN)C(=O)N[C@H](C(=O)N[C@@H](CC(C)C)C(=O)N[C@H](C(=O)N[C@H](C(=O)NCC(=O)N[C@@H](CC(C)C)C(=O)N1CCC[C@H]1C(=O)N[C@@H](C)C(=O)N[C@@H](CC(C)C)C(=O)N[C@H](C(=O)N[C@@H](CO)C(=O)N[C@@H](Cc1c[nH]c2ccccc12)C(=O)N[C@H](C(=O)N[C@@H](CCCCN)C(=O)N[C@@H](CCCNC(=N)N)C(=O)N[C@@H](CCCCN)C(=O)N[C@@H](CCCNC(=N)N)C(=O)N[C@@H](CCC(N)=O)C(=O)N[C@@H](CCC(N)=O)C(N)=O)[C@@H](C)CC)[C@@H](C)CC)[C@@H](C)O)[C@@H](C)O)C(C)C)C(C)C [Melittin]
SYTOX Green uptake (fluorescence intensity) (S. aureus cell membranes): significant increase in fluorescence intensity | cytoplasmic membrane depolarization (DiSC3-(5) fluorescence) [2]: complete depolarization | ONPG hydrolysis (absorbance at 405 nm) (E. coli ML-35): change in absorbance

IRLSRSTYAS-NH2 [F3]
MIC (Staphylococcus aureus): >590 µg/mL | MIC (bacterial strains): > 590 µg/mL | MIC (Escherichia coli): >590 µg/mL

LRVRRTLQ-NH2 [F1]
MIC (Staphylococcus aureus): >500 µg/mL | MIC (Escherichia coli): 67 µg/mL

RRVSRNT-NH2 [F2 (C15S)]
peptide concentration giving DNA band retardation (plasmid DNA (pHIS2)): > 16 µM | MIC (Staphylococcus aureus; Staphylococcus aureus, broth microdilution, MHB, 37 °C, triplicate): >227 µg/mL | MIC (Salmonella typhimurium; Salmonella typhimurium, broth microdilution, MHB, 37 °C, triplicate): >227 µg/mL | MIC (bacterial strains): > 227 µg/mL | MIC (Escherichia coli; Escherichia coli, broth microdilution, MHB, 4 × 10^6 CFU/well, 37 °C, triplicate, no deviations): >227 µg/mL | MIC (Pseudomonas aeruginosa; Pseudomonas aeruginosa, broth microdilution, MHB, 37 °C, triplicate): >227 µg/mL | MIC (Bacillus subtilis; Bacillus subtilis, broth microdilution, MHB, 37 °C, triplicate): >227 µg/mL | MIC ([1]; Staphylococcus epidermidis, broth microdilution, MHB, 37 °C, triplicate): >227 µg/mL | MIC (MRSA CCARM 3090): >114 µg/mL | MIC (MRSA CCARM 3089): >114 µg/mL | MIC (MRSA CCARM 3095): >114 µg/mL

Buforin-2
peptide concentration giving DNA band retardation (plasmid DNA (pHIS2)): 2 µM | SYTOX Green uptake (fluorescence intensity) (S. aureus cell membranes): did not show a similar increase in fluorescence intensity | cytoplasmic membrane depolarization (DiSC3-(5) fluorescence) [2]: failed to induce any change in membrane potential | ONPG hydrolysis (absorbance at 405 nm) (E. coli ML-35): did not alter the absorbance

CC[C@H](C)[C@H](NC(=O)[C@@H]1CSSC[C@H](NC(=O)[C@H](CCC(N)=O)NC(=O)[C@@H](N)CC(C)C)C(=O)N[C@@H](CO)C(=O)N[C@H]2CSSC[C@H](NC(=O)[C@H]([C@@H](C)O)NC(=O)[C@H](CC(N)=O)NC(=O)[C@H](CCCNC(=N)N)NC(=O)[C@@H]3CSSC[C@H](NC(=O)[C@H](C(C)C)NC(=O)[C@H](CCCNC(=N)N)NC(=O)[C@H](CCCNC(=N)N)NC2=O)C(=O)N[C@@H](CCCNC(=N)N)C(=O)N[C@@H](CC(N)=O)C(=O)N[C@@H]([C@@H](C)O)C(=O)N[C@H]2CSSC[C@H](NC(=O)[C@H](CO)NC(=O)[C@@H](NC(=O)[C@H](CCC(N)=O)NC(=O)[C@@H](N)CC(C)C)CSSC[C@@H](C(=O)N[C@H](C(=O)N[C@@H](CCCNC(=N)N)C(N)=O)[C@@H](C)CC)NC(=O)[C@H](CO)NC2=O)C(=O)N[C@@H](CCCNC(=N)N)C(=O)N[C@@H](CCCNC(=N)N)C(=O)N[C@@H](C(C)C)C(=O)N3)C(=O)N[C@@H](CO)C(=O)N1)C(=O)N[C@@H](CCCNC(=N)N)C(N)=O [F4] (I: H-LQCSCRRVCRNTCSCIR-NH2 / II: H-LQCSCRRVCRNTCSCIR-NH2; disulfide I:3-II:15, I:5-II:13, I:9-II:9, I:13-II:5, I:15-II:3 (inferred); N-terminus assumed)
MIC (Staphylococcus aureus): 64 µg/mL (≈ 16 µM) | MIC (Escherichia coli): 32 µg/mL (≈ 8.02 µM)

CC(C)[C@H](NC(=O)[C@@H]1CSSC[C@H](NC(=O)[C@@H](NC(=O)[C@H](CCCNC(=N)N)NC(=O)[C@@H](N)CCCNC(=N)N)C(C)C)C(=O)N[C@@H](CCCNC(=N)N)C(=O)N[C@@H](CC(N)=O)C(=O)N[C@@H]([C@@H](C)O)C(=O)N[C@@H]([C@@H](C)O)C(=O)N[C@@H](CC(N)=O)C(=O)N[C@@H](CCCNC(=N)N)C(=O)N1)C(=O)N[C@@H](CCCNC(=N)N)C(=O)N[C@@H](CCCNC(=N)N)C(N)=O [F2-PH] (H-RRVCRNTTNRCVRR-NH2; disulfide 4-11; N-terminus assumed)
MIC (Staphylococcus aureus): 29 µg/mL (≈ 16.2 µM) | MIC (Salmonella typhimurium; murium): 15 µg/mL (≈ 8.39 µM) | MIC (bacterial strains): 15 µg/mL (≈ 8.39 µM) | MIC (Escherichia coli): 15 µg/mL (≈ 8.39 µM) | MIC (Pseudomonas aeruginosa): 15 µg/mL (≈ 8.39 µM) | MIC (Bacillus subtilis): 29 µg/mL (≈ 16.2 µM) | MIC [1]: 15 µg/mL (≈ 8.39 µM) | MIC (MRSA CCARM 3090): 58 µg/mL (≈ 32.5 µM) | MIC (MRSA CCARM 3089): 29 µg/mL (≈ 16.2 µM) | MIC (MRSA CCARM 3095): 29 µg/mL (≈ 16.2 µM)
